What was measured:
[1] = tested on: Gallus gallus; test: Effect on intestinal calcium absorption was measured in vivo, in the vitamin D deficient chick; type: functional; parameters: reference not given here
[2] = organism: Homo sapiens; test: 25-hydroxyvitamin D3-1-hydroxylase activity (10e-6 M) was measured as %control
[3] = tested on: Gallus gallus; test: Effect on bone calcium mobilization was measured in vivo, in the vitamin D deficient chick; type: functional, Bone element; parameters: reference not given here
[4] = target: T1, Vitamin D-binding protein (Homo sapiens) (UniProt P02774); test: Relative competitive index for binding to vitamin D binding protein
T1 sequence (whole entry): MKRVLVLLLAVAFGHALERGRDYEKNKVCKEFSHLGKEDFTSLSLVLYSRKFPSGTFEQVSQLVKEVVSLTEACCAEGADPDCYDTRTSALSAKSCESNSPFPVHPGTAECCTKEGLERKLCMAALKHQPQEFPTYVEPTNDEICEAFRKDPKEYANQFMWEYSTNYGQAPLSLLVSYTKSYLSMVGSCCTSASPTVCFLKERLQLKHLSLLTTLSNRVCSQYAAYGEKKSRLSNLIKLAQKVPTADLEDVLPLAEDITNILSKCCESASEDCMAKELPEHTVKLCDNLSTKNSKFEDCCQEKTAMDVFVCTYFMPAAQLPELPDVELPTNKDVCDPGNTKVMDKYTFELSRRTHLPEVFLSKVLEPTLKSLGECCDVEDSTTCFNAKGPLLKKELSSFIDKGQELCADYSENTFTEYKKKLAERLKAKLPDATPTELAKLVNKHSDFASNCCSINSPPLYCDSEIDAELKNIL

[5] = target: Vitamin D3 receptor (Homo sapiens) (UniProt P11473); test: Relative competitive index values for binding to 1,25(OH)2D3 receptor of human HL-60 cells
[6] = organism: Homo sapiens; test: Inhibitory effect (10e-6 M) on the 25-hydroxyvitamin D3-1-hydroxylase activity
[7] = tested on: Vitamin D3 receptor (Gallus gallus); test: Relative competitive index values for binding to 1,25(OH)2D3 receptor of chick intestine
[8] = target: Vitamin D3 receptor (Homo sapiens) (UniProt P11473); test: Relative competitive index values for binding to 1,25(OH)2D3 receptor of human HL-60 cells; remark: listed apart in the source
[9] = organism: Homo sapiens; test: Inhibitory effect (10e-6 M) on the 25-OH-D3-1-hydroxylase activity; type: functional
[10] = organism: Homo sapiens; test: 25-OH-D3-1-hydroxylase activity (10e-6 M) was measured as %control; type: functional

Row | Control [2] | RCI [4] | Activity [6] | RCI [7] | Activity [9] | Control [10] | Compound | Ratio [1] | Ratio [3] | RCI [5] | RCI [8]
1 | 97% | 980 | 16.9 pmol/10 min | 28 |  |  | C=C1/C(=C\C=C2/CCC[C@]3(C)[C@@H]([C@H](C)Cc4cccc(O)c4)CC[C@@H]23)C[C@@H](O)C[C@@H]1O | 0.28 | 1 | 27 | 
2 | 96% |  | 16.7 pmol/10 min | 1.4 |  |  | C=C1/C(=C\C=C2/CCC[C@]3(C)[C@@H]([C@H](C)Cc4cccc(C)c4)CC[C@@H]23)C[C@@H](O)C[C@@H]1O | 0.31 | 0.06 | 3.5 | 
3 | 99% | 2 | 17.2 pmol/10 min | 62 |  |  | C=C1/C(=C\C=C2/CCC[C@]3(C)[C@@H]([C@H](C)Cc4cccc(C(C)(C)O)c4)CC[C@@H]23)C[C@@H](O)C[C@@H]1O | 30.7 | 7.7 | 32 | 
4 |  | 1980 |  | 5 | 18.1 pmol/10 min | 104% | C=C1/C(=C\C=C2/CCC[C@]3(C)[C@@H]([C@H](C)Cc4ccc(O)cc4)CC[C@@H]23)C[C@@H](O)C[C@@H]1O | 0.04 | 0.08 |  | 12
5 | 12% |  | 2.1 pmol/10 min |  |  |  | C=C1/C(=C\C=C2/CCC[C@]3(C)[C@@H]([C@H](C)CCCC(C)(C)O)CC[C@@H]23)C[C@@H](O)C[C@@H]1O |  |  |  | 

Source: ChEMBL document CHEMBL1125933, “Arocalciferols: synthesis and biological evaluation of aromatic side-chain analogues of 1 alpha,25-dihydroxyvitamin D3(1a)” (1991)
